Patent US6706663B2, “Herbicidal 3-heterocyclic substituted benzisothiazole and benzisoxazole compounds” (Wyeth, priority 2000, dated 2004)

Assays:
[1] = test system: ABUTH (Abutilon theophrasti); assay: Postemergence herbicidal evaluation; assay type: in vivo, Medic.
Outline: (§1)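 Seedlings grown about two weeks in flats, sprayed, then kept under standard greenhouse care. Rated visually 4–5 weeks after treatment on a 0–9 scale (stand, vigour, malformation, size, chlorosis, overall appearance) relative to untreated control; repeat tests averaged.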

[2] = test system: GLXMAW (Soybean, Williams); assay: Postemergence herbicidal evaluation; assay type: in vivo, Glycine max, (L.) Merr. cv Williams
Outline: as §1

[3] = test system: IPOHE (Ipomoea hederacea); assay: Postemergence herbicidal evaluation; assay type: in vivo, (L.) Jacq.
Outline: as §1

[4] = test system: ORYSAT (Rice, Tebonnet); assay: Postemergence herbicidal evaluation; assay type: in vivo, Oryza sativa, (L.) Tebonnet
Outline: as §1

[5] = test system: SETVI (Setaria viridis); assay: Postemergence herbicidal evaluation; assay type: in vivo, (L.) Beau
Outline: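 Seedlings about two weeks old were sprayed with compound in 50/50 acetone/water plus 0.5% TWEEN 20, at the equivalent of about 0.0040 to 1.000 kg/ha. Plants were kept in a greenhouse and visually rated 0-9 against a control four to five weeks after treatment. Repeat tests were averaged.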

[6] = test system: MOOVA (Monochoria vaginalis); assay: Flooded paddy, preemergence weed control; assay type: in vivo, Presl.; conditions: rated 3-4 weeks after treatment, 0-9 rating scale
Outline: (§2)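 Seeds or propagules were planted in the top 0.5 cm of silt loam soil and kept flooded 1.5–3 cm above the surface throughout, then held in the greenhouse. Injury was rated visually on a 0–9 scale against untreated controls, covering stand, vigor, malformation, size and chlorosis.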

[7] = test system: CYPIR (Cyperus iria); assay: Flooded paddy, preemergence weed control; assay type: in vivo; conditions: rated 3-4 weeks after treatment, 0-9 rating scale
Outline: as §2

[8] = test system: ECHORC (Echinochloa oryzoides); assay: Flooded paddy, preemergence weed control; assay type: in vivo, Echinochloa oryzoides (Ard.) Fritsch.; conditions: rated 3-4 weeks after treatment, 0-9 rating scale
Outline: as §2

[9] = test system: ORYSAT (Rice, Tebonnet); assay: Preemergence herbicidal evaluation; assay type: in vivo, Oryza sativa, (L.) Tebonnet; conditions: preemergence, rated 4-5 weeks after treatment
[10] = test system: CHEAL (Chenopodium album); assay: Preemergence herbicidal evaluation; assay type: in vivo, L.; conditions: preemergence, rated 4-5 weeks after treatment
Outline: (§3)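 Seeds planted in potting soil cups and sprayed preemergence with aqueous acetone compound solution. Greenhouse-grown; rated 4–5 weeks after treatment on a 0-9 visual scale (stand, vigor, malformation, size, chlorosis, appearance) versus control.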

[11] = test system: AMBEL (Ambrosia artemisifolia); assay: Preemergence herbicidal evaluation; assay type: in vivo, L.; conditions: preemergence, rated 4-5 weeks after treatment
Outline: as §3

[12] = test system: CASOB (Cassia obtusifolia); assay: Preemergence herbicidal evaluation; assay type: in vivo, L.; conditions: preemergence, rated 4-5 weeks after treatment
Outline: as §3

[13] = test system: SAGPY (Sagittaria pygmaea); assay: Flooded paddy, preemergence weed control; assay type: in vivo, L.; conditions: rated 3-4 weeks after treatment, 0-9 rating scale
Outline: as §2

[14] = test system: SETVI (Setaria viridis); assay: Preemergence herbicidal evaluation; assay type: in vivo, (L.) Beau; conditions: preemergence, rated 4-5 weeks after treatment
Outline: as §3

[15] = test system: ECHCG (Echinochloa crus-galli); assay: Preemergence herbicidal evaluation; assay type: in vivo, (L.) Beau; conditions: preemergence, rated 4-5 weeks after treatment
Outline: as §3

[16] = test system: GALAP (Galium aparine); assay: Postemergence herbicidal evaluation; assay type: in vivo
Outline: as §1

[17] = test system: ECHCG (Echinochloa crus-galli); assay: Postemergence herbicidal evaluation; assay type: in vivo, (L.) Beau
Outline: as §1

[18] = test system: ORYSAT (Rice, Tebonnet); assay: Flooded paddy, post-transplant rice tolerance; assay type: in vivo, Oryza sativa, (L.) Tebonnet; conditions: flooded paddy, post-transplant rice, rated 3-4 weeks after treatment, 0-9 rating scale
Outline: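 Ten-day-old seedlings, 2/pot, silt loam; flood kept 1.5–3 cm over soil; herbicide applied post-transplant; greenhouse; score 0–9 visual vs control.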

[19] = test system: IPOHE (Ipomoea hederacea); assay: Preemergence herbicidal evaluation; assay type: in vivo, (L.) Jacq.; conditions: preemergence, rated 4-5 weeks after treatment
[20] = test system: ZEAMX (Corn, Field); assay: Postemergence herbicidal evaluation; assay type: in vivo, Zea mays, L.
Outline: as §1

Cn1ccnc1-c1nsc2ccc(-n3c(=O)cc(C(F)(F)F)n(C)c3=O)cc12 [Compound 5, 1-methyl-3-[3-(1-methylimidazol-2-yl)-1,2-benzisothiazol-5-yl]-6-(trifluoromethyl)uracil]
Postemergence herbicidal rating, ABUTH ([1]; rate 0.0320 kg/ha): 9.0
Postemergence herbicidal rating, ABUTH ([1]; rate 0.0620 kg/ha): 9.0
Postemergence herbicidal rating, GLXMAW ([2]; rate 0.0320 kg/ha): 5.5
Postemergence herbicidal rating, GLXMAW ([2]; rate 0.0620 kg/ha): 6.0
Postemergence herbicidal rating, IPOHE ([3]; rate 0.0320 kg/ha): 9.0
Postemergence herbicidal rating, IPOHE ([3]; rate 0.0620 kg/ha): 9.0
Postemergence herbicidal rating, ORYSAT ([4]; rate 0.0320 kg/ha): 2.0
Postemergence herbicidal rating, ORYSAT ([4]; rate 0.0620 kg/ha): 3.0
Postemergence herbicidal rating, SETVI ([5]; rate 0.0320 kg/ha): 0.0
Postemergence herbicidal rating, SETVI ([5]; rate 0.0620 kg/ha): 1.0
herbicidal rating, MOOVA ([6]; rate 0.0320 kg/ha): 2.0
herbicidal rating, MOOVA ([6]; rate 0.1250 kg/ha): 9.0
herbicidal rating, CYPIR ([7]; rate 0.0320 kg/ha): 0.0
herbicidal rating, CYPIR ([7]; rate 0.1250 kg/ha): 7.0
herbicidal rating, ECHORC ([8]; rate 0.0320 kg/ha): 0.0
herbicidal rating, ECHORC ([8]; rate 0.1250 kg/ha): 2.0
ORYSAT preemergence herbicidal rating ([9]; Rate 0.0620 kg/ha): 3.0
ORYSAT preemergence herbicidal rating ([9]; Rate 0.1250 kg/ha): 5.0
ORYSAT preemergence herbicidal rating ([9]; Rate 0.2500 kg/ha): 7.5
CHEAL preemergence herbicidal rating ([10]; Rate 0.0620 kg/ha): 9.0
CHEAL preemergence herbicidal rating ([10]; Rate 0.1250 kg/ha): 9.0
CHEAL preemergence herbicidal rating ([10]; Rate 0.2500 kg/ha): 9.0
AMBEL preemergence herbicidal rating ([11]; Rate 0.0620 kg/ha): 8.5
AMBEL preemergence herbicidal rating ([11]; Rate 0.1250 kg/ha): 9.0
AMBEL preemergence herbicidal rating ([11]; Rate 0.2500 kg/ha): 9.0
CASOB preemergence herbicidal rating ([12]; Rate 0.0620 kg/ha): 0.0
CASOB preemergence herbicidal rating ([12]; Rate 0.1250 kg/ha): 1.0
CASOB preemergence herbicidal rating ([12]; Rate 0.2500 kg/ha): 5.5
herbicidal rating, SAGPY ([13]; rate 0.0320 kg/ha): 0.0
herbicidal rating, SAGPY ([13]; rate 0.1250 kg/ha): 0.0
SETVI preemergence herbicidal rating ([14]; Rate 0.0620 kg/ha): 9.0
SETVI preemergence herbicidal rating ([14]; Rate 0.1250 kg/ha): 9.0
SETVI preemergence herbicidal rating ([14]; Rate 0.2500 kg/ha): 9.0
ECHCG preemergence herbicidal rating ([15]; Rate 0.0620 kg/ha): 2.5
ECHCG preemergence herbicidal rating ([15]; Rate 0.1250 kg/ha): 8.0
ECHCG preemergence herbicidal rating ([15]; Rate 0.2500 kg/ha): 9.0
Postemergence herbicidal rating, GALAP ([16]; rate 0.0320 kg/ha): 0.0
Postemergence herbicidal rating, GALAP ([16]; rate 0.0620 kg/ha): 4.0
Postemergence herbicidal rating, ECHCG ([17]; rate 0.0320 kg/ha): 0.0
Postemergence herbicidal rating, ECHCG ([17]; rate 0.0620 kg/ha): 0.0
herbicidal rating, ORYSAT (rice tolerance) ([18]; rate 0.0320 kg/ha): 2.0
herbicidal rating, ORYSAT (rice tolerance) ([18]; rate 0.1250 kg/ha): 3.0
IPOHE preemergence herbicidal rating ([19]; Rate 0.0620 kg/ha): 4.0
IPOHE preemergence herbicidal rating ([19]; Rate 0.1250 kg/ha): 9.0
IPOHE preemergence herbicidal rating ([19]; Rate 0.2500 kg/ha): 9.0
Postemergence herbicidal rating, ZEAMX ([20]; rate 0.0320 kg/ha): 4.5
Postemergence herbicidal rating, ZEAMX ([20]; rate 0.0620 kg/ha): 5.5
